According to paper PMC8708821, “Comprehensive Analysis and Biological Characterization of Venom Components from Solitary Scoliid Wasp Campsomeriella annulata annulata” (Toxins, 2021):
Read-outs that look alike come from different tables or passages of the source. Marks after values point to notes of the source that are not given here. No end group written: not given here.

Key:
Vero cells = test: Toxicity on cell integrity, crystal violet, Vero cells; format: cell-based, Cercopithecus aethiops (African green monkey); details: for cytotoxicity in Vero cells: 0.1, 1 and 10 μmol·L−1, 1, 6, 24 and 48 h, vs untreated cells, n = 3 in triplicate
Method: (§1) The cytotoxic effects of α-campsomerin and β-campsomerin were determined by the staining of attached cells with crystal violet dye, according to the literature. In a 96-well plate (Nest Biotechnology, Rahway, USA), PC12 and Vero cells were put at 2.0 × 10^4 and 1.0 × 10^4 cells/well, respectively. Cells were treated with different concentrations (0.1 to 10 µmol·L^−1) of peptides in 0.10 mL. The plate was incubated for 1, 6, 24, and 48 h at 37 °C. There were control and DMSO groups for each concentration and time course tested, representing untreated cells (just one equal volume of culture medium) and cells treated with DMSO (5%; v/v) diluted in the medium culture, respectively. The media was then aspirated, and the cells were stained with a 0.5 percent crystal violet staining solution (0.5%; m/v), washed, and air-dried. Afterwards, methanol (200 μL) was added, and the absorbance measured at 570 nm using a SpectraMax reader (Molecular Devices, CA, USA). Data were obtained from three independent experiments in triplicate, and were expressed by percentage of cell viability, calculated using the control group as 100% of integrity.

PC12 cells [1] = test: Toxicity on cell integrity, crystal violet, PC12 cells; format: cell-based, rat
Method: as §1

PC12 cells [2] = test: Neuroprotective assay against H2O2-induced oxidative stress; format: cell-based, rat
Method: Initially, PC12 cells were seeded at 2 × 10^4 cells/well in a 96-well plate (Nest Biotechnology, Rahway, NJ, USA) for 24 h. To evaluate the neuroprotective effects of peptides, cells were pre-treated at 37 °C with α-campsomerin and β-campsomerin (0.1 to 20 µmol·L^−1), diluted in DMEM medium supplemented with antibiotics without fetal bovine serum for 4 h. […] Cells untreated with H2O2 represent control group in all experiments. Next, all groups were analyzed by the cell integrity.

[3] = target: T1, AChE from Electrophorus electricus (electric eel) Type VI-S (Electrophorus electricus, UniProt O42275); test: AChE activity, Ellman's technique; format: biochemical; details: positive control; mean ± SD, three independent experiments in triplicate
T1 construct: purchased Sigma-Aldrich Type VI-S
T1 sequence (O42275 24-633): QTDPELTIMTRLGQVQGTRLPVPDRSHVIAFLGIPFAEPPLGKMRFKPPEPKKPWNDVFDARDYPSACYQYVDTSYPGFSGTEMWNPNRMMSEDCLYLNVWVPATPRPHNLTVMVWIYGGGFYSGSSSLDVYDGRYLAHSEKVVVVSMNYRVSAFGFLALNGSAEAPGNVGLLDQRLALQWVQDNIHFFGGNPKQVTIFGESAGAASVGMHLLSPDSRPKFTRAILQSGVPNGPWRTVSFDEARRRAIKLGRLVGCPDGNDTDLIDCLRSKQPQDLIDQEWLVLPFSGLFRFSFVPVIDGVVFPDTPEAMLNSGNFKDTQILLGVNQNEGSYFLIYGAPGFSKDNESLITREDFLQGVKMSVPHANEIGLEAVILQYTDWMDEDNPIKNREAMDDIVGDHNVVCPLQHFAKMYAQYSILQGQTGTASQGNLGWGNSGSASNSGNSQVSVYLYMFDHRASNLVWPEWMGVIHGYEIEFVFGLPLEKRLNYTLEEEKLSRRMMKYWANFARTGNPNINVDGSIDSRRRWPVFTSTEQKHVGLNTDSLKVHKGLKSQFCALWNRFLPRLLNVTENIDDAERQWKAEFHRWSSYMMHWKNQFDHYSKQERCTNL
Method: The AChE activity was evaluated spectrophotometrically using Ellman’s technique, as previously reported by Harry et al., with slight modifications. Both peptides (20 μL) at varied concentrations (20, 10, 5, 1, and 0.1 µmol·L^−1), 10 μL of AChE (0.5 U·mL^−1) (Sigma, St. Louis, MO, USA) and 160 μL of 5,5-dithiobis-2-nitrobenzoic acid (DTNB, Ellman’s reagent) 0.33 mM (Sigma, St. Louis, MO, USA) in phosphate buffer (0.1 mo·L^−1, pH 8.0) were placed in triplicate in a microplate, and incubated at room temperature for 10 min after adding 10 μL of acetylthiocholine iodide (20 mmol·L^−1) (Sigma, St. Louis, MO, USA). The hydrolysis of acetylthiocholine iodide leads to production of acetic acid and thiocholine, which reacts with DTNB producing the anion 5-thio-2-nitrobenzoic acid, which was monitored at 412 nm during 20 min in microplate reader (BioTek Instruments, Inc., Winooski, VT, USA. Tetraethyl pyrophosphate (TEPP; Sigma, St. Louis, MO, USA) was used as a positive control. IAChE = [(Ac − As)/Ac] × 100, where Ac = absorbance for the control and As = absorbance for the sample was used to compute the percentage of inhibition (I) of AChE.

neuronal cell lines = details: previous study; neuronal cell integrity and mitochondrial metabolism; ref [28]; cited from earlier work
From the text: The venom of solitary wasps is a rich source of neuroactive chemicals, including bradykinin-related peptides, which disrupt the synaptic transmission of the nAChR in the central nervous system of prey. Our group has studied the neuroprotective effects of natural peptides from solitary wasp venoms against the H2O2-induced oxidative stress in neuronal cell lines after different treatments for acute and chronic conditions.. This cell model, which promotes excessive ROS generation, with consequent neurotoxic effects, represents typical characte ...

mast cells [4] = test: Histamine-releasing activity; format: cell-based
Method: (§2) Antimicrobial, hemolytic, and histamine-releasing activities were measured as described previously. The microbial species used in this study were: Escherichia coli (NBRC 14237), Staphylococcus aureus (NBRC 12732), and Saccharomyces cerevisiae (NBRC 10217), which were purchased from the Biological Resource Center (BRC, Kisarazu, Japan), National Institute of Technology and Evaluation. The pI of peptides was calculated with IPC (http://isoelectric.org/index.html, accessed on 8 November 2021). The physicochemical properties were examined using HeliQuest (http://heliquest.ipmc.cnrs.fr/, accessed on 8 November 2021).

[5] = test system: Saccharomyces cerevisiae (NBRC 10217); test: Antimicrobial activity (MIC), S. cerevisiae; format: cell-based
Method: as §2

[6] = test system: Staphylococcus aureus (NBRC 12732); test: Antimicrobial activity (MIC), S. aureus; format: cell-based
Method: as §2

Hemolytic activity = format: cell-based
Method: as §2

[7] = test system: Escherichia coli (NBRC 14237); test: Antimicrobial activity (MIC), E. coli; format: cell-based
Method: as §2

[8] = ref Shigeri et al. [34]; cited from earlier work
From the text: Table 10 Antimicrobial, hemolytic, and histamine-releasing activities of annulatin and related peptides. | column: Hemolytic Activity (%) / at 10 μmol·L^−1

mast cells [9] = details: ref Shigeri et al. [34]; cited from earlier work
From the text: Table 10 Antimicrobial, hemolytic, and histamine-releasing activities of annulatin and related peptides. | column: Histamine Releasing Activity at 10 μmol·L^−1 (%)

neprilysin (NEP) = test: Stability test: cleavage of peptide by NEP; format: in vitro ADME; details: human, isolated human neprilysin (NEP); peptide 30 µmol·L−1 incubated four hours at 37 °C with NEP (7.5 n); RP-HPLC C-18, UV 214 nm
Method: (§3) Both peptides (30 µmol·L^−1) were incubated for four hours at 37 °C with ACE and NEP (7.5 n). As a negative control, samples containing only synthetic peptides were employed. After incubation, samples were analyzed on a Shim-pack VP-ODS C-18 column (4.6 150 mm) utilizing reverse-phase chromatography on HPLC (Prominence, Shimadzu). Solvent A was 0.1% TFA in water (solvent A), and solvent B was acetonitrile plus solvent A (9:1). Over a 20-min period, separations were carried out at a flow rate of 1 mL/min with a 10–60 percent gradient of solvent B. Elution was always followed by an assessment of UV absorption (214 nm).

ACE I from rabbit lung = target: T2, ACE I from rabbit lung (Oryctolagus cuniculus, UniProt P12822); test: ACE catalytic activity inhibition (FRET substrate); format: biochemical; details: peptide 20, 30 and 50 μmol·L−1; FRET substrate Abz-FRK(Dnp)P-OH 2, 4, 8 μmol·L−1; 100 mmol·L−1 Tris-HCl, 50 mmol·L−1 NaCl, 10 μmol·L−1 ZnCl2, pH 7.0; 37 °C; 15 min; triplicate
T2 construct: The ACE I from rabbit lung; purchased Sigma-Aldrich; host or cells: rabbit lung
T2 sequence (P12822 34-1310): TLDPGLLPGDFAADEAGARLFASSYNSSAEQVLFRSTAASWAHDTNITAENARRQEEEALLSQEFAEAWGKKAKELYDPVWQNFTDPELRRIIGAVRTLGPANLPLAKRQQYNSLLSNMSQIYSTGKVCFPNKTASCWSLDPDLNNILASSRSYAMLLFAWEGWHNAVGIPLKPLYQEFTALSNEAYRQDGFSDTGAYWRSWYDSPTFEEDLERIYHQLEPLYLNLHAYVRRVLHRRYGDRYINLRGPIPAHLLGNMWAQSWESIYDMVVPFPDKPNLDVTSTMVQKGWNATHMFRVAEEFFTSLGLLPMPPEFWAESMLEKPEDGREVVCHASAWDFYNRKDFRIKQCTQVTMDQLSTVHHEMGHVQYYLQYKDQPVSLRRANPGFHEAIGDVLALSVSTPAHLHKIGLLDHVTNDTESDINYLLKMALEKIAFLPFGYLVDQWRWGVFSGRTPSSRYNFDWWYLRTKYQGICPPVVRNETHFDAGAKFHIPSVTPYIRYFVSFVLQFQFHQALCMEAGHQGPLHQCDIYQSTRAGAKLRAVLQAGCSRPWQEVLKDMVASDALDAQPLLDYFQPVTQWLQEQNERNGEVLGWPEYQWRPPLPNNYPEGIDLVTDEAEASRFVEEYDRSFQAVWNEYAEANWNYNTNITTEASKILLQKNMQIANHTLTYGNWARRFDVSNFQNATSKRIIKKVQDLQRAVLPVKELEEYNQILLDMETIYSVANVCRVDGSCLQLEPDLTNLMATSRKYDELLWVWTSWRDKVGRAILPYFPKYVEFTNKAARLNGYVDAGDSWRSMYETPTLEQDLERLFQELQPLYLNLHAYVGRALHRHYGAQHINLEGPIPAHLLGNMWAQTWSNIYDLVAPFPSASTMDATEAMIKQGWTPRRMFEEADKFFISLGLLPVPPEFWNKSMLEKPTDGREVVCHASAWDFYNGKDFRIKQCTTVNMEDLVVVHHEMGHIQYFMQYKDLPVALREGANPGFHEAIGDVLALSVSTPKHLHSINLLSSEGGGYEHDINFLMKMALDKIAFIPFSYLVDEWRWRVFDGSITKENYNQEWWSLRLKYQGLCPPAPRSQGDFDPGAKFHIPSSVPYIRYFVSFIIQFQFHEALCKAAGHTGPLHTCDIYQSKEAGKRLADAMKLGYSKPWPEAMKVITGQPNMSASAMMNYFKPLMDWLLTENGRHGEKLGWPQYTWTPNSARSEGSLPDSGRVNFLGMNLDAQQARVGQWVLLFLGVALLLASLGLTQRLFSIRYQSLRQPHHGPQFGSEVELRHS
Method: (§4) Experiments were performed using different concentrations of α-campsomerin and β-campsomerin with ACE and NEP, and their FRET substrates, FRK(Dnp)P-OH and Abz-RGFK (Dnp)-OH, respectively. The assays used 7.5 ng of both peptidases and the substrates were added in a 100 mmol·L^−1 Tris-HCl buffer containing 50 mmol·L^−1 NaCl, 10 μmol·L^−1 ZnCl2, pH 7.0 (for ACE assays) and Tris HCl 50 mmol·L^−1, pH 7.5 buffer (for NEP assays). All experiments were carried out at 37 °C and at a final volume of 100 µL Three FRETs substrate concentrations were used (2 μmol·L^−1, 4 μmol·L^−1 and 8 μmol·L^−1), and were incubated with three concentrations of both peptides (20 μmol·L^−1, 30 μmol·L^−1 and 50 μmol·L^−1). Controls without the peptides were also performed in all assays. The reactions were monitored for 15 min on fluorimeter (Victor 3—Perkin–Elmer) and the results were analyzed on GraFit 3.0 from Erithacus Software. All assays were performed in triplicate.

human neprilysin (NEP) = human neprilysin (NEP) (Homo sapiens, UniProt P08473); test: NEP catalytic activity inhibition (FRET substrate); format: biochemical; details: peptide 20, 30 and 50 μmol·L−1; FRET substrate Abz-RGFK(Dnp)-OH 2, 4, 8 μmol·L−1; Tris HCl 50 mmol·L−1 pH 7.5; 37 °C; 15 min; triplicate
human neprilysin (NEP), sequence (P08473 whole entry): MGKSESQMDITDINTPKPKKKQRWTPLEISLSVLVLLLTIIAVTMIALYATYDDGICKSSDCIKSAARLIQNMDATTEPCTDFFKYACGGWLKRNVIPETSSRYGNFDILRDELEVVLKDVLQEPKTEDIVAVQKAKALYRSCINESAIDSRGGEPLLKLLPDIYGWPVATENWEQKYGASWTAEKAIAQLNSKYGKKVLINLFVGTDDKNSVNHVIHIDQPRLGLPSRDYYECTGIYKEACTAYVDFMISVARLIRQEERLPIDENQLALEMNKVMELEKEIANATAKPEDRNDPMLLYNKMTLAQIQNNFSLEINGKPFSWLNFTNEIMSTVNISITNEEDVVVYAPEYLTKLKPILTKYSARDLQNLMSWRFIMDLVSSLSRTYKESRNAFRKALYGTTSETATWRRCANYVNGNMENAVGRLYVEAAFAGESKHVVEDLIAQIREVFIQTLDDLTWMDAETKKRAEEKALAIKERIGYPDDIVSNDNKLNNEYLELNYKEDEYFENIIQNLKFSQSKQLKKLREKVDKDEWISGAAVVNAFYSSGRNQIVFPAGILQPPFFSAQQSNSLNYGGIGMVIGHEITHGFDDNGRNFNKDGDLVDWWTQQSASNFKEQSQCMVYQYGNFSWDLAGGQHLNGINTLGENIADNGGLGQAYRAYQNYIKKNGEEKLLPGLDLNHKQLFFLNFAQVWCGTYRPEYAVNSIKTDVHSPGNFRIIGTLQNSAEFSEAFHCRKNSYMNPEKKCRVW
Method: as §4

ACE I = test system: T3, ACE I; test: Stability test: cleavage of peptide by ACE; format: in vitro ADME; details: rabbit, isolated ACE I from rabbit lung; peptide 30 µmol·L−1 incubated four hours at 37 °C with ACE (7.5 n); RP-HPLC C-18, UV 214 nm
T3 construct: The ACE I from rabbit lung; purchased Sigma-Aldrich; host or cells: rabbit lung
Method: as §3

[10] = DMSO 5% (v/v), after 6, 24 and 48 h, vs control group

Molecule: C[S+](C)[O-] [DMSO, reference compound]
- cell integrity in Vero cells, DMSO positive control (Vero cells; [10]): decreased cell integrity
- cell integrity in PC12 cells, DMSO positive control (PC12 cells [1]; [10]): decreased cell integrity

Molecule: OO [H2O2]
- reduction of PC12 cell integrity by H2O2 (PC12 cells [2]; H2O2 0.5 mmol·L−1, 20 h of treatment): 60.5 ± 4.0%
- H2O2 concentrations promoting PC12 cell death (PC12 cells [2]; tested 1–0.06 mmol·L−1, 20 h, dose-dependent): greater than 0.3 mmol·L−1

Molecule: CCOP(=O)(OCC)OP(=O)(OCC)OCC [TEPP, tetraethyl pyrophosphate]
- AChE inhibition percentage [3]: 76.20 ± 1.42%

Molecule: DYVTVKGFSPLRKA [β-scoliidine]
- neuroprotective effects against H2O2-induced neurotoxicity in prolonged therapy (neuronal cell lines): showed neuroprotective effects

Molecule: ISEALKSIIVG-NH2 [Annulatin]
- Histamine Releasing Activity at 10 μmol·L−1 (%) (mast cells [4]): 33.0%
- MIC S. cerevisiae (NBRC 10217) [5]: Negative
- MIC S. aureus (NBRC 12732) [6]: Negative
- Hemolytic Activity (%) at 12.5 μmol·L−1 (Hemolytic activity): 15.4%
- MIC E. coli (NBRC 14237) [7]: Negative

Molecule: Mastoparan
- Hemolytic Activity (%) at 10 μmol·L−1 [8]: 13.5 ^b %
- Histamine Releasing Activity at 10 μmol·L−1 (%) (mast cells [9]): 31.1 ^b %

Molecule: Melittin: honeybee hemolytic peptide
- Hemolytic Activity (%) at 10 μmol·L−1 [8]: 100.0 ^b %
- Histamine Releasing Activity at 10 μmol·L−1 (%) (mast cells [9]): 64.3 ^b %

Molecule: PRLRRLTGLSPLR [α-campsomerin]
- metabolised at 4 h, 30 µmol·L−1 (neprilysin (NEP)): < 0.01%
- Inhibition (%) ACE (ACE I from rabbit lung): <0.01%
- cytotoxicity in Vero cells (Vero cells): no significant cytotoxicity
- Inhibition (%) NEP (human neprilysin (NEP)): <0.01%
- PC12 cell integrity after 6 h of treatment (PC12 cells [1]; all concentrations tested (0.1, 1, 10 μmol·L−1), 6 h): reduced cell integrity
- metabolised at 4 h, 30 µmol·L−1 (ACE I): < 0.01%

Molecule: PRLRRLTGLSPLRAP [β-campsomerin]
- metabolised at 4 h, 30 µmol·L−1 (neprilysin (NEP)): < 0.01%
- Inhibition (%) ACE (ACE I from rabbit lung): <0.01%
- cytotoxicity in Vero cells (Vero cells): no significant cytotoxicity
- Inhibition (%) NEP (human neprilysin (NEP)): <0.01%
- toxicity in PC12 cells under the conditions tested (discussion) (PC12 cells [1]; 0.1 to 10 µmol·L−1, up to 48 h): not toxic
- metabolised at 4 h, 30 µmol·L−1 (ACE I): < 0.01%
